In patent US20170037014A1, “FUNGICIDAL PYRAZOLES” (E. I. DU PONT DE NEMOURS AND COMPANY, priority 2014, published 2017):
Marks after values point to notes of the source that are not given here.

Assays:
[1] = system: Puccinia recondita f sp. tritici; assay: Test A: wheat leaf rust, preventive spray on wheat seedlings, visual disease rating; assay type: in vivo; conditions: 100 = 100% disease control, 0 = no control
Source text: General protocol for preparing test suspensions for Tests A-D: the test compounds were first dissolved in acetone in an amount equal to 3% of the final volume and then suspended at the desired concentration (in ppm) in acetone and purified water (50/50 mix by volume) containing 250 ppm of the surfactant Trem® 014 (polyhydric alcohol esters). The resulting test suspensions were then used in Tests A-D. The test suspension was sprayed to the point of run-off on wheat seedlings. The following day the seedlings were inoculated with a spore suspension of Puccinia recondita f sp. tritici (the causal agent of wheat leaf rust) and incubated in a saturated atmosphere at 20° C. for 24 h, and then moved to a growth chamber at 20° C. for 7 days, after which time visual disease ratings were made. In the Table, a rating of 100 indicates 100% disease control and a rating of 0 indicates no disease control (relative to the controls). A dash (−) indicates no test results. All results are for 250 ppm except where followed by an “*” which indicates 50 ppm, and where followed by an “**” which indicates 10 ppm

[2] = system: Blumeria graminis f sp. tritici; assay: Test D: wheat powdery mildew, preventive spray on wheat seedlings, visual disease rating; assay type: in vivo; conditions: 100 = 100% disease control, 0 = no control
Source text: General protocol for preparing test suspensions for Tests A-D: the test compounds were first dissolved in acetone in an amount equal to 3% of the final volume and then suspended at the desired concentration (in ppm) in acetone and purified water (50/50 mix by volume) containing 250 ppm of the surfactant Trem® 014 (polyhydric alcohol esters). The resulting test suspensions were then used in Tests A-D. The test suspension was sprayed to the point of run-off on wheat seedlings. The following day the seedlings were inoculated with a spore dust of Blumeria graminis f sp. tritici, (also known as Erysiphe graminis f. sp. tritici, the causal agent of wheat powdery mildew) and incubated in a growth chamber at 20° C. for 8 days, after which time visual disease ratings were made. In the Table, a rating of 100 indicates 100% disease control and a rating of 0 indicates no disease control (relative to the controls). A dash (−) indicates no test results. All results are for 250 ppm except where followed by an “*” which indicates 50 ppm, and where followed by an “**” which indicates 10 ppm

[3] = system: Botrytis cinerea; assay: Test C: tomato Botrytis, preventive spray on tomato seedlings, visual disease rating; assay type: in vivo; conditions: 100 = 100% disease control, 0 = no control
Source text: General protocol for preparing test suspensions for Tests A-D: the test compounds were first dissolved in acetone in an amount equal to 3% of the final volume and then suspended at the desired concentration (in ppm) in acetone and purified water (50/50 mix by volume) containing 250 ppm of the surfactant Trem® 014 (polyhydric alcohol esters). The resulting test suspensions were then used in Tests A-D. The test suspension was sprayed to the point of run-off on tomato seedlings. The following day the seedlings were inoculated with a spore suspension of Botrytis cinerea (the causal agent of tomato Botrytis) and incubated in a saturated atmosphere at 20° C. for 48 h, and then moved to a growth chamber at 24° C. for 3 days, after which time visual disease ratings were made. In the Table, a rating of 100 indicates 100% disease control and a rating of 0 indicates no disease control (relative to the controls). A dash (−) indicates no test results. All results are for 250 ppm except where followed by an “*” which indicates 50 ppm, and where followed by an “**” which indicates 10 ppm

[4] = system: Septoria tritici; assay: Test B: wheat leaf blotch, preventive spray on wheat seedlings, visual disease rating; assay type: in vivo; conditions: 100 = 100% disease control, 0 = no control
Source text: General protocol for preparing test suspensions for Tests A-D: the test compounds were first dissolved in acetone in an amount equal to 3% of the final volume and then suspended at the desired concentration (in ppm) in acetone and purified water (50/50 mix by volume) containing 250 ppm of the surfactant Trem® 014 (polyhydric alcohol esters). The resulting test suspensions were then used in Tests A-D. The test suspension was sprayed to the point of run-off on wheat seedlings. The following day the seedlings were inoculated with a spore suspension of Septoria tritici (the causal agent of wheat leaf blotch) and incubated in a saturated atmosphere at 24° C. for 48 h, and then moved to a growth chamber at 20° C. for 19 days, after which time visual disease ratings were made. In the Table, a rating of 100 indicates 100% disease control and a rating of 0 indicates no disease control (relative to the controls). A dash (−) indicates no test results. All results are for 250 ppm except where followed by an “*” which indicates 50 ppm, and where followed by an “**” which indicates 10 ppm

[5] = Zymoseptoria tritici, 50 ppm (*)

| melting point [°C] | Compound | Test A disease control rating ([1]; 50 ppm (*)) | Test D disease control rating ([2]; 50 ppm (*)) | Test C disease control rating ([3]; 50 ppm (*)) | Test B disease control rating ([4]; 50 ppm (*)) | other results |
| --- | --- | --- | --- | --- | --- | --- |
| 146 to 149 | Cc1nn(C)c(C2CCCCC2)c1C(O)c1ccc(F)cc1Cl (stereo not drawn) [Compound 8, α-(2-chloro-4-fluorophenyl)-5-cyclohexyl-1,3-dimethyl-1H-pyrazole-4-methanol] | – | – | – | – | pest or weed control at 250 ppm ([1]; 250 ppm): 99%; pest or weed control at 250 ppm ([2]; Blumeria graminis, 250 ppm): 93%; pest or weed control at 250 ppm ([3]; Botrytis cinerea, 250 ppm): 86%; pest or weed control at 250 ppm ([4]; Zymoseptoria tritici, 250 ppm): 99% |
| 75 to 79 | Cc1nn(C)c(C2CCCCC2)c1Oc1ccc(F)cc1Cl [Compound 12, 4-(2-chloro-4-fluorophenoxy)-5-cyclohexyl-1,3-dimethyl-1H-pyrazole] | – | – | – | – | pest or weed control at 250 ppm ([1]; 250 ppm): 79%; pest or weed control at 250 ppm ([2]; Blumeria graminis, 250 ppm): 90%; pest or weed control at 250 ppm ([3]; Botrytis cinerea, 250 ppm): 9%; pest or weed control at 250 ppm ([4]; Zymoseptoria tritici, 250 ppm): 19% |
| 129 to 133 | Cc1nn(C)c(CC(C)C)c1C(O)c1ccc(F)cc1F (stereo not drawn) [Compound 14, α-(2,4-difluorophenyl)-1,3-dimethyl-5-(2-methylpropyl)-1H-pyrazole-4-methanol] | – | – | – | – | pest or weed control at 50 ppm ([1]; 50 ppm (*)): 74%; pest or weed control at 50 ppm ([2]; Blumeria graminis, 50 ppm (*)): 98%; pest or weed control at 50 ppm ([3]; Botrytis cinerea, 50 ppm (*)): 16%; pest or weed control at 50 ppm [4, 5]: 99% |
| – | CC=C(C)c1c(Oc2ccc(F)cc2Cl)c(C)nn1C [Compound 4] | – | – | – | – | Test A disease control rating ([1]; 250 ppm): 0%; Test D disease control rating ([2]; 250 ppm): 56%; Test C disease control rating ([3]; 250 ppm): 39%; Test B disease control rating ([4]; 250 ppm): 0% |
| – | Cc1nn(C)c(C2=CCCCC2)c1Oc1ccc(F)cc1Cl [Compound 13, 4-(2-chloro-4-fluorophenoxy)-5-(1-cyclohexen-1-yl)-1,3-dimethyl-1H-pyrazole] | – | – | – | – | pest or weed control at 250 ppm ([1]; 250 ppm): 9%; pest or weed control at 250 ppm ([2]; Blumeria graminis, 250 ppm): 67%; pest or weed control at 250 ppm ([3]; Botrytis cinerea, 250 ppm): 0%; pest or weed control at 250 ppm ([4]; Zymoseptoria tritici, 250 ppm): 0% |
| 152 to 154 | Cc1nn(C)c(C(C)C)c1C(O)c1ccc(F)cc1Cl (stereo not drawn) [Compound 1, α-(2-chloro-4-fluorophenyl)-1,3-dimethyl-5-(1-methylethyl)-1H-pyrazole-4-methanol] | – | – | – | – | pest or weed control at 50 ppm ([1]; 50 ppm (*)): 98%; pest or weed control at 50 ppm ([2]; Blumeria graminis, 50 ppm (*)): 97%; pest or weed control at 50 ppm ([3]; Botrytis cinerea, 50 ppm (*)): 33%; pest or weed control at 50 ppm [4, 5]: 100% |
| – | Cn1nc(Br)c(C(O)c2ccc(F)cc2Cl)c1C1=CCCCC1 (centres unmarked) [Compound 28] | 80* % | 64* % | 0* % | 87* % | – |
| 175 to 178 | CCC(C)c1c(C(O)c2c(Cl)cccc2Cl)c(C)nn1C (stereo not drawn) [Compound 24, α-(2,6-dichlorophenyl)-1,3-dimethyl-5-(1-methylpropyl)-1H-pyrazole-4-methanol] | – | – | – | – | pest or weed control at 50 ppm ([1]; 50 ppm (*)): 99%; pest or weed control at 50 ppm ([2]; Blumeria graminis, 50 ppm (*)): 84%; pest or weed control at 50 ppm ([3]; Botrytis cinerea, 50 ppm (*)): 40%; pest or weed control at 50 ppm [4, 5]: 69% |
| – | Cc1nn(C)c(C2CCCC2)c1C(O)c1ccc(F)cc1Cl (centres unmarked) [Compound 19] | 89* % | 89* % | 0* % | 100* % | – |
| – | CCC(C)c1c(Nc2ccc(F)c(F)c2)c(C)nn1C (centres unmarked) [Compound 20] | 0* % | 26* % | – | 0* % | – |
| – | CCC(C)c1c(Oc2ccc(F)cc2Cl)c(C)nn1C (centres unmarked) [Compound 7] | – | – | – | – | Test A disease control rating ([1]; 250 ppm): 0%; Test D disease control rating ([2]; 250 ppm): 0%; Test C disease control rating ([3]; 250 ppm): 0%; Test B disease control rating ([4]; 250 ppm): 0% |
| – | Cc1nn(C)c(C(C)C)c1C(O)c1ccc(F)cc1F (centres unmarked) [Compound 2] | 57* % | 99* % | 0* % | 99* % | – |
| 161 to 164 | Cc1nn(C)c(C2CCCCC2)c1C(O)c1ccc(F)cc1F (stereo not drawn) [Compound 11, 5-cyclohexyl-α-(2,4-difluorophenyl)-1,3-dimethyl-1H-pyrazole-4-methanol] | – | – | – | – | pest or weed control at 250 ppm ([1]; 250 ppm): 99%; pest or weed control at 250 ppm ([2]; Blumeria graminis, 250 ppm): 97%; pest or weed control at 250 ppm ([3]; Botrytis cinerea, 250 ppm): 99%; pest or weed control at 250 ppm ([4]; Zymoseptoria tritici, 250 ppm): 100% |
| – | CCC(C)c1c(Nc2ccc(F)cc2Cl)c(C)nn1C (centres unmarked) [Compound 18] | 0* % | 0* % | – | 0* % | – |
| 159 to 162 | Cc1nn(C)c(CC(C)C)c1C(O)c1ccc(F)cc1Cl (stereo not drawn) [Compound 3, α-(2-chloro-4-fluorophenyl)-1,3-dimethyl-5-(2-methylpropyl)-1H-pyrazole-4-methanol] | – | – | – | – | pest or weed control at 10 ppm ([1]; 10 ppm (**)): 89%; pest or weed control at 10 ppm ([2]; Blumeria graminis, 10 ppm (**)): 71%; pest or weed control at 10 ppm ([3]; Botrytis cinerea, 10 ppm (**)): 0%; pest or weed control at 10 ppm ([4]; Zymoseptoria tritici, 10 ppm (**)): 100% |
| – | Cc1nn(C)c(C2CCCC2)c1C(O)c1ccc(F)cc1F (centres unmarked) [Compound 26] | 74* % | 90* % | 26* % | 97* % | – |
| – | C=C(C)Cc1c(C(O)c2ccc(F)cc2Cl)c(C)nn1C (centres unmarked) [Compound 5] | 68* % | 76* % | 0* % | 99* % | – |
| – | CCC(C)c1c(Nc2c(F)cc(F)cc2F)c(C)nn1C (centres unmarked) [Compound 15] | 0* % | 0* % | – | 1* % | – |
| – | CC=C(C)c1c(C(O)c2ccc(F)cc2Cl)c(Br)nn1C (centres unmarked) [Compound 27] | 99* % | – | 58* % | 100* % | Test D disease control rating ([2]; 250 ppm): 86% |
| – | CCC(C)c1c(C(O)c2c(F)cccc2F)c(C)nn1C (centres unmarked) [Compound 25] | 74* % | 86* % | 17* % | 63* % | – |
| 118 to 121 | CCC(C)c1c(C(O)c2ccc(F)cc2F)c(C)nn1C (stereo not drawn) [Compound 10, α-(2,4-difluorophenyl)-1,3-dimethyl-5-(1-methylpropyl)-1H-pyrazole-4-methanol] | – | – | – | – | pest or weed control at 250 ppm ([1]; 250 ppm): 100%; pest or weed control at 250 ppm ([2]; Blumeria graminis, 250 ppm): 100%; pest or weed control at 250 ppm ([3]; Botrytis cinerea, 250 ppm): 99%; pest or weed control at 250 ppm ([4]; Zymoseptoria tritici, 250 ppm): 99% |
| – | CCC(C)c1c(Nc2c(F)cc(C#N)cc2F)c(C)nn1C (centres unmarked) [Compound 17] | 0* % | 69* % | – | 35* % | – |
| – | CCC(C)c1c(Nc2c(F)cc([N+](=O)[O-])cc2F)c(C)nn1C (centres unmarked) [Compound 16] | 0* % | 0* % | – | 22* % | – |
